Counter-ions that a name gives are not always drawn.
Assay: in vitro
Conditions: rat, gh3-tre-luc cells, AC50 (uM) modified / 1000

Row | SMILES | CC50 at 24 h
1 | CO[C@]12C[C@@H](COC(=O)c3cncc(Br)c3)CN(C)[C@@H]1Cc1cn(C)c3cccc2c13 [Nicergoline] | 16.4 µM
2 | C[C@H](N[C@@H](CCc1ccccc1)C(=O)O)C(=O)N1CCC[C@H]1C(=O)O [Enalapril acid] | > 50 µM
3 | CCCCCCCCCCCCCC(=O)O [Tetradecanoic acid] | > 90 µM
4 | Cc1ccc(N)c(C)c1 [2,4-Dimethylaniline] | > 90 µM
5 | CC1(C)OC[C@@H](COC(=O)CCc2ccc(OC[C@@H](O)CNCCNC(=O)N3CCOCC3)cc2)O1 [Landiolol hydrochloride] | > 50 µM
6 | C=CC(=O)OCC(CO)(COCC(COC(=O)C=C)(COC(=O)C=C)COC(=O)C=C)COC(=O)C=C [Dipentaerythritol pentaacrylate] | 1.74 µM
7 | CC(C)(C)C(=O)c1ccccc1 [tert-Butyl phenyl ketone] | > 90 µM
8 | Cc1cn[nH]c1 [4-Methylpyrazole hydrochloride] | > 50 µM
9 | COC(=O)C1=C(C#N)NC(C)=C(C(=O)OC(C)C)C1c1cccc([N+](=O)[O-])c1 (stereo not drawn) [Nilvadipine] | 27.9 µM
10 | c1ccc(C2CO2)cc1 (stereo not drawn) [Styrene oxide] | > 90 µM
11 | Cc1c(C(=O)O)cccc1[N+](=O)[O-] [2-Methyl-3-nitrobenzoic acid] | > 90 µM
12 | CCOC(=O)CCc1ccccc1 [Ethyl hydrocinnamate] | > 90 µM
13 | CC(C)N(CCC(C(N)=O)(c1ccccc1)c1ccccn1)C(C)C (stereo not drawn) [Disopyramide] | > 50 µM
14 | C=CC(C)(CCC=C(C)C)OC=O (stereo not drawn) [Linalyl formate] | > 90 µM
15 | CO[C@@H]1[C@@H](O[C@@H]2O[C@H](C)[C@@H](O[C@H]3C[C@@](C)(O)[C@@H](O)[C@H](C)O3)[C@H](N(C)C)[C@H]2O)[C@@H](CC=O)C[C@@H](C)[C@@H](O[C@H]2CC[C@H](N(C)C)[C@@H](C)O2)/C=C/C=C/C[C@@H](C)OC(=O)C[C@H]1OC(C)=O [Spiramycin II] | 32.1 µM
16 | O=C(Nc1ccc(/C=C/c2ccc(NC(=O)c3cc(S(=O)(=O)O)c4cccnc4c3O)cc2S(=O)(=O)O)c(S(=O)(=O)O)c1)c1cc(S(=O)(=O)O)c2cccnc2c1O [Ubistatin A] | > 50 µM

Row | SMILES | CC50 at 24 h
17 | CCN(CC)c1ccc(C(=C2C=CC(=[N+](CC)CC)C=C2)c2ccccc2)cc1 [Brilliant Green] | 0.384 µM
18 | O=C(/C=C/C=C/c1ccc2c(c1)OCO2)N1CCCCC1 [Piperine] | > 90 µM
19 | OCCN1CCN(CCO)CC1 [1,4-Piperazinediethanol] | > 90 µM
20 | CC(C)SCc1ccco1 [Furfuryl isopropyl sulfide] | > 40 µM
21 | Nc1cc(Cl)cc(C(=O)O)c1Cl [Chloramben] | > 90 µM
22 | CCC(C)c1nccnc1OC (stereo not drawn) [2-sec-Butyl-3-methoxypyrazine] | > 90 µM
23 | c1ccc2cc3c(ccc4ccccc43)cc2c1 [Benz(a)anthracene] | > 90 µM
24 | Cc1ccccc1NC(=N)NC(=N)N [1-(o-Tolyl)biguanide] | > 90 µM
25 | O=C(Nc1ccccc1)Nc1ccccc1 [Diphenylurea] | > 90 µM
26 | O=C(O)c1c(Cl)cccc1Cl [2,6-Dichlorobenzoic acid] | > 90 µM
27 | O=c1c(O)c(-c2ccc(O)c(O)c2)oc2cc(O)cc(O)c12 [Quercetin dihydrate] | 57 µM
28 | CCNC(=O)/C=C/c1cccc(Br)c1 [Cinromide] | > 50 µM
29 | CCC=CCCCCO (stereo in doubt) [(Z)-5-Octen-1-ol] | > 90 µM
30 | CCN(CC)CC#CCOC(=O)C(O)(c1ccccc1)C1CCCCC1 (stereo not drawn) [Oxybutynin chloride] | 15.3 µM
31 | CC(C)(C)c1cc(CCC(=O)NN)cc(C(C)(C)C)c1O [3-[3,5-DI(tert-butyl)-4-hydroxyphenyl]propanohydrazide] | > 90 µM
32 | Cc1ncc(C[n+]2csc(CCO[P@](=O)(O)OP(=O)(O)O)c2C)c(N)n1 [Cocarboxylase chloride] | > 50 µM

Same assay, conditions: rat, gh3-tre-luc cells, AC50 (uM) modified / 1000, Tox21_110001=Tox21_301359; viability, 1 nM T3 present, 24 h

Row | SMILES | CC50 at 24 h
33 | CCOC(=O)c1cn2nc(OP(=S)(OCC)OCC)cc2nc1C [Pyrazophos] | > 90 µM
